Measurements published in patent WO2017093157A1, “Piperidine, pyrrolidine and 2-oxo-1,3-oxazinane derivatives as inhibitors of bacterial efflux-pumps for the treatment of microbial infections” (Basilea Pharmaceutica AG, priority 2015, dated 2017).

Key:
E. coli ATCC25922 = assay: Antibacterial activity in combination with linezolid, E. coli; format: cell-based; settings: Escherichia coli, linezolid 128 μg/mL, compound 50 μM, OD625 23 h minus 1 h
P. aeruginosa PAOl = assay: Antibacterial activity in combination with linezolid, P. aeruginosa; format: cell-based; settings: Pseudomonas aeruginosa, linezolid 128 μg/mL, compound 50 μM, OD625 23 h minus 1 h

Row | Structure (SMILES) | residual growth (% of uninhibited control) at 50 µM (E. coli ATCC25922) [%] | residual growth (% of uninhibited control) at 50 µM (P. aeruginosa PAOl) [%]
1 | NCC1COC(=O)N(Cc2cc(C=O)cc(OCc3ccc(Cl)cc3Br)c2)C1 (centres unmarked) [Example 7, 3-[[5-(aminomethyl)-2-oxo-l,3-oxazinan-3-yl]methyl]-5-[(2-bromo-4-chloro-phenyl)methoxy]benzaldehyde] | ≤ 50 | –
2 | C[N+]1(Cc2cc(OCCc3c[nH]cn3)cc(OCc3ccc(Cl)cc3Br)c2)CCC(CN)C1 (stereo not drawn) [Example 23, [l-[[3-[(2-bromo-4-chloro-phenyl)methoxy]-5-[2-(7H-imidazol-4-yl)ethoxy]phenyl]methyl]-l-methyl-pyrrolidin-l-ium-3-yl]methanamine] | – | ≤ 50
